Read-outs that look alike come from different tables or passages of the source. Where no end group is shown, it is not given here. [ ]: non-standard residue; d: D form.
Key:
[1] = system: M. smegmatis; test: MIC against M. smegmatis; format: cell-based, Mycobacterium smegmatis; details: M. smegmatis (MC 155); CAAT media
[2] = system: M. kansasii; test: MIC against M. kansasii; format: cell-based, Mycobacterium kansasii; details: M. kansasi (ATCC 12478); CAAT media
[3] = system: M. intracellulare; test: MIC against M. intracellulare; format: cell-based, Mycobacterium intracellulare; details: M. intracellulare (ATCC 13950); CAAT media
[4] = system: M. tuberculosis; format: cell-based, Mycobacterium tuberculosis
[5] = system: M. abscessus; test: MIC against MDR M. abscessus isolates; format: cell-based, Mycobacterium abscessus; details: 7 days, AST media (CAAT)
[6] = system: A. dolens; test: MIC by broth microdilution against A. dolens; format: cell-based, Achromobacter dolens; details: A. dolens isolates
How it was run: (§1)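 CLSI broth microdilution, with Mueller Hinton Broth replaced by CAA media (with or without NaCl) or CAA plus 2.5% human serum. MIC taken as the lowest peptide concentration suppressing at least 80% of growth relative to control.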

[7] = system: Achromobacter spp.; test: MIC by broth microdilution against Achromobacter spp.; format: cell-based; details: Tables 8-12
Procedure: MIC values were determined using a modification of the standard broth microdilution reference method defined by the Clinical and Laboratory Standards Institute (CLSI), CLSL. 2015. Methods for Dilution Antimicrobial Susceptibility Tests for Bacteria That Grow Aerobically; Approved Standard-10th Edition. Clinical and Laboratory Standards Institute, Wayne, PA. The modification was based on the replacement of Mueller Hinton Broth with either CAA media (with and without NaCl) or CAA supplemented with 2.5% human serum. MIC is the minimum concentration of peptide sufficient to suppress at least 80% of the bacterial growth compared to control.
The MICs for were determined as described below using the broth microdilution method for meropenem, GN370, AM1, AM2, and AM3. The results are shown below in Tables 8-12.

[8] = system: B. cenocepacia; test: MIC by broth microdilution against B. cenocepacia; format: cell-based, Burkholderia cenocepacia; details: B. cenocepacia isolates
How it was run: as §1

[9] = system: B. multivorans; test: MIC by broth microdilution against B. multivorans; format: cell-based, Burkholderia multivorans; details: B. multivorans isolates
How it was run: as §1

[10] = system: P. apista; test: MIC by broth microdilution against P. apista; format: cell-based, Pandoraea apista; details: P. apista isolates
How it was run: as §1

[11] = system: Gram-negative bacteria (including P. aeruginosa, E. cloacae, K. pneumoniae, E. coli, and A. baumannii); test: Inner membrane depolarization (diSC3-5 release); format: cell-based; details: equivalent or superior to melittin, LL37, RI-18, and PMBN
Source text: The mechanism of action of Chp peptides disclosed herein can also be evaluated by measuring the depolarization of the inner membrane of Gram-negative bacteria, including MDR and XDR strains. The inner membrane comprises […] phospholipids such as cardiolipin, phosphatidylglycerol, and phosphatidylserine. This creates a net negative charge at physiological pH, which is believed to enhance the binding of cationic peptides, including the Chp peptides disclosed herein. Upon permeabilization of the outer membrane, the ability of Chp peptides to induce dissipation of the cytoplasmic membrane electrical potential gradient (Ay) may be examined, for example by following the release of 3,3′-dipropylthiadicarbocyanine (diSC3-5) as a function of time compared to an untreated control. DiSC3-5 is a fluorophore that is a caged cation concentrated within the bacterial inner membrane and under the influence of the bacterial membrane electrical potential gradient. At high concentrations, diSC3-5 self-quenches, leading to the suppression of fluorescence. When the inner membrane deteriorates or becomes leaky for cations, including protons, the Δψ dissipates, which leads to a release of diSC3-5 and a subsequent increase in fluorescence. […] Without wishing to be bound by theory, it is believed that the adsorption and binding of Chp peptides to the inner membrane and insertion into the lipid bilayer results in membrane permeabilization and pore/ion channel formation, which is concomitant with the collapse of the membrane's electrical potential.

[12] = system: B. cenocepacia; format: cell-based, Burkholderia cenocepacia
Procedure: (§2) The MBEC (after 2-hour treatments) was determined as described in Jones and Wozniak, PsI Produced by Mucoid Pseudomonas aeruginosa Contributes to the Establishment of Biofilms and Immune Evasion, Am. Soc. Microbiol. 2017, 8(3):e00864-17. Meropenem and tobramycin were included as controls and were both poorly active, with MBEC90 values of >256 μg/mL (data not shown).

[13] = system: P. apista; format: cell-based, Pandoraea apista
Procedure: as §2

[14] = system: P. aeruginosa
[15] = system: S. maltophilia
[16] = all tested isolates, Tables 8-12

Substance: M[dR]L[dK]MA[dR][dR][dR]Y[dR]LP[dR][dR][dR]S[dR][dR]LFS[dR]TAL[dR]MHP[dR]N[dR]L[dR][dR]IM[dR]GGI[dR]F [AM2]
- MIC [1]: 0.5 µg/mL
- MIC [2]: 2 µg/mL
- MIC [3]: 0.5 µg/mL
- MIC ([4]; M. tuberculosis (ATCC 35817), (ADC, T) media): 8 µg/mL
- MIC ([4]; M. tuberculosis strain TN8109_LB (MDR), 7H9 broth, 20 days): 2 µg/mL
- MIC ([4]; M. tuberculosis strain TN8562_M33 (susc), 7H9 broth, 20 days): 2 µg/mL
- MIC ([4]; M. tuberculosis strain TN10525_LL (MDR), 7H9 broth, 20 days): 8 µg/mL
- MIC ([4]; M. tuberculosis strain TN10571_KY (MDR), 7H9 broth, 20 days): 4 µg/mL
- MIC ([4]; M. tuberculosis strain TN12657_KQ15 (IS), 7H9 broth, 20 days): 4 µg/mL
- MIC ([4]; M. tuberculosis strain TN13923_HD17 (susc), 7H9 broth, 20 days): 8 µg/mL
- MIC ([4]; M. tuberculosis strain TN18349_W738 (susc), 7H9 broth, 20 days): 2 µg/mL
- MIC ([4]; M. tuberculosis strain TN34503_001 (susc), 7H9 broth, 20 days): 8 µg/mL
- MIC ([5]; M. abscessus strain BK51402): 2 µg/mL
- MIC ([5]; M. abscessus strain BK51403 (ATCC 19977)): 4 µg/mL
- MIC ([5]; M. abscessus strain BK51408): 8 µg/mL
- MIC ([5]; M. abscessus strain BK55096): 4 µg/mL
- MIC ([5]; M. abscessus strain BK55691): 1 µg/mL
- MIC ([5]; M. abscessus strain BK58156): 1 µg/mL
- MIC50 [6]: 4 µg/mL
- MIC90 [6]: 8 µg/mL
- MIC Range ([6]; in µg/mL): 0.016-16
- activity (MIC) against Achromobacter spp. [7]: variably active
- MIC50 [8]: > 128 µg/mL
- MIC90 [8]: > 128 µg/mL
- MIC50 [9]: > 128 µg/mL
- MIC90 [9]: > 128 µg/mL
- MIC50 [10]: > 128 µg/mL
- MIC90 [10]: > 128 µg/mL
- inner membrane depolarization (diSC3-5) [11]: dose-dependent increase in membrane depolarization
- MBEC50 [12]: 16 µg/mL
- MBEC90 [12]: 32 µg/mL
- MBEC Range [12]: 2 to 32 µg/mL
- MBEC50 [13]: 8 µg/mL
- MBEC90 [13]: 16 µg/mL
- MIC50 ([14]; P. aeruginosa isolates): 0.06 µg/mL
- MIC90 ([14]; P. aeruginosa isolates): 0.25 µg/mL
- MIC Range ([14]; P. aeruginosa isolates): 0.016-0.5^
- MIC ([14]; P. aeruginosa test organism of the sputum time-kill assay): (MIC = 0.25)
- activity (MIC) against P. aeruginosa isolates [14, 16]: highly active
- MIC50 ([15]; S. maltophilia isolates): 0.5 µg/mL
- MIC90 ([15]; S. maltophilia isolates): 1 µg/mL
- MIC Range ([15]; S. maltophilia isolates, in µg/mL): 0.03-2
- MIC ([15]; S. maltophilia test organism of the sputum time-kill assay): AM2 (MIC = 0.5)
- activity (MIC) against S. maltophilia isolates [15, 16]: highly active

From patent US20240181022A1, “AMURINS LYSINS, AND LYSIN-ANTIMICROBIAL PEPTIDE (AMP) CONSTRUCTS ACTIVE AGAINST GRAM-NEGATIVE BACTERIA” (priority 2021, published 2024)
